Experimental data taken from patent US12318452B2, “Degraders of WEE1 kinase” (DANA-FARBER CANCER INSTITUTE, INC., priority 2018, dated 2025).

What was measured:
Wee1 = Wee1 (Homo sapiens, UniProt P30291); experiment: Wee1 degradation immunoblot in MOLT4 cells, 5-hr dose response and time course; type: cell-based; design: endogenous in cells; host or cells: MOLT4 (wild type; CRBN-/- as control); conditions: for Wee1 degradation: 5-hr exposure, 100 nM-10 μM
Protocol: (§1) Whole cell lysates for immunoblotting were prepared by pelleting cells from each cell line at 4° C. (300 g) for 5 minutes. The resulting cell pellets were washed 1× with ice-cold PBS and then resuspended in RIPA lysis buffer (Sigma, cat #R0278) supplemented with protease and phosphatase inhibitor tablets (Roche cat #4906845001). Lysates were clarified at 14,000 rpm for 15 minutes at 4° C. prior to quantification by BCA assay (Pierce™, cat #23225). Whole cell lysates were loaded into Bolt 4-12% Bis-Tris Gels (Thermo Fisher, cat #NW04120BOX) and separated by electrophoreses at 95 V for 1.5 hours. The gels were transferred to a nitrocellulose membrane using the iBlot® Gel Transfer at P3 for 7 minutes (Thermo Fisher, cat #IB23001) and then blocked for 1 hour at room temperature in Odyssey® blocking buffer (LICOR® Biosciences, cat #927-50010). Membranes were probed using antibodies against the relevant proteins at 4° C. overnight in 20% Odyssey® Blocking Buffer in 1×TBST. Membranes were then washed three times with 1×TBST (at least 5 minutes per wash) followed by incubation with the IRDye® goat anti-mouse (LICOR®, cat #926-32210) or goat anti-rabbit (LICOR®, cat #926-32211) secondary antibody (diluted 1:10,000) in 20% Odyssey® Blocking Buffer in 1×TBST for 1 hour at room temperature. After three washes with 1×TBST (at least 5 minutes per wash), the immunoblots were visualized using the ODYSSEY® Infrared Imaging System (LICOR®).
(§2) MOLT4 cells were plated at 1.5 million cells per well in a 6-well plate, with 3 mL of media per well. Cells were then immediately treated with the indicated concentration of the indicated compound and incubated for the indicated amount of time. Cells were collected by transferring each well to a 15 mL conical, centrifuging (1000 rpm for 3 min), then washing the cell pellet 2× with cold PBS. Each cell pellet was then lysed in 100 μL of RIPA lysis buffer (+protease/phosphatase inhibitors). Samples were normalized and prepped in 4×LDS+10% β-mercaptoethanol and boiled for 5 min at 95° C. Lysates were probed for specified proteins by western blotting using the Bolt® system (Life Technologies™)
To confirm that compound 13-mediated Wee1 degradation is CRBN dependent (FIG. 1D), Wee1 degradation profiles in parental versus CRBN^−/− MOLT4 cells were compared. In parental MOLT4 cells, compound 13 induced potent Wee1 degradation after 5 hours, with maximal degradation observed at 100 nM and a “hook effect” apparent at the top concentration of 10 μM, where compound 13:CRBN and compound 13-Wee1 binary complexes inhibit the formation of a productive ternary complex (Toure and Crews, Angew. Chem. 55:1966-1973 (2016)).
To evaluate the kinetics of Wee1 degradation, a time course study was performed in MOLT4 cells using 100 nM compound 13. Degradation occurred rapidly, with over 50% degradation achieved within 30 min, and complete degradation reached by 3 hr (FIG. 4C).

kinome (Wee1, PLK1) = experiment: KINOMEscan profiling; type: binding; conditions: 1 μM
pCDK1 Y15 = experiment: Downstream signalling immunoblot in MOLT4 cells (pCDK1 Y15, cleaved PARP, γH2Ax); type: cell-based
Protocol: as §1, §2
The effects of targeted Wee1 degradation on the cell cycle were evaluated. Wee1 is required for the temporal regulation of CDK1 at the G2/M cell-cycle checkpoint, and Wee1 loss therefore […] via activation of CDK1. Following loss of Wee1 activity, cells are expected to enter mitosis before completing DNA repair, ultimately resulting in excessive unrepaired DNA damage, mitotic catastrophe, and apoptosis (Beck et al., Mol. Cell Biol. 32:4226-4236 (2012)).

OVCAR8 cells = experiment: Synergy experiment, CellTiter-Glo co-treatment for 72 hours; type: cell-based; conditions: 72-hr co-treatment with Olaparib
[1] = 100 nM, MOLT4 cells, time course

Chain of Wee1 (P30291 whole entry): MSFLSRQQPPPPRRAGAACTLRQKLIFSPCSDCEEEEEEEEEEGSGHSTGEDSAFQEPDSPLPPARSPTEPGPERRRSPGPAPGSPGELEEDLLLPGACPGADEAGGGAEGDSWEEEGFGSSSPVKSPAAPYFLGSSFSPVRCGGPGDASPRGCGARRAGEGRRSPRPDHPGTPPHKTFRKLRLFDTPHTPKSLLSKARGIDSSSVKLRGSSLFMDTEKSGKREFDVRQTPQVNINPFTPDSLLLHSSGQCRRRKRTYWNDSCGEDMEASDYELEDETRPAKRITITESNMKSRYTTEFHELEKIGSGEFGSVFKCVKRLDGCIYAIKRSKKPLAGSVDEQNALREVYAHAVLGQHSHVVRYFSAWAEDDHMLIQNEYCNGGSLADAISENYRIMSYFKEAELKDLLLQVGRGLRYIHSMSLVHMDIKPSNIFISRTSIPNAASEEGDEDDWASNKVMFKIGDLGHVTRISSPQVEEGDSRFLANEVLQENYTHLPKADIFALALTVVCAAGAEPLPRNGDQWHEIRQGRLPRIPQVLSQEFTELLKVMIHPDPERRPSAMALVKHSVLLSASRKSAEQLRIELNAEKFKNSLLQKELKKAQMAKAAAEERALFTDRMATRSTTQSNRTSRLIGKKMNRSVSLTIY

Effect on Wee1 protein levels over time (Wee1; [1]) | SMILES | Time to complete Wee1 degradation (Wee1; 100 nM, MOLT4 cells) [h] | Wee1 degradation achieved within 30 min (Wee1; [1]) | Effect on Wee1 abundance in CRBN−/− cells (Wee1; CRBN−/− MOLT4 cells, 5 hours) | Wee1 degradation (Wee1; MOLT4 cells) | Concentration giving maximal (sufficient) Wee1 degradation (Wee1; MOLT4 cells, 5-hr treatment) [nM] | Concentration at which hook effect is apparent (Wee1; parental MOLT4 cells, 5 hours) [µM] | Duration of sustained loss of Wee1 (Wee1; single 100 nM treatment, MOLT4 cells) | Kinase engagement in KINOMEscan (kinome (Wee1, PLK1)) | Dose from which pCDK1 Y15 is decreased (pCDK1 Y15; CRBN−/− MOLT4 cells) [μM] | Fold lower doses than AZD1775 for the same downstream effects (pCDK1 Y15; MOLT4 cells) | Dose from which pCDK1 Y15 is reduced (pCDK1 Y15; parental MOLT4 cells) [nM] | Synergy with Olaparib (OVCAR8 cells)
– | C=CCn1c(=O)c2cnc(Nc3ccc(N4CCN(CCCNc5cccc6c5C(=O)N(C5CCC(=O)NC5=O)C6=O)CC4)cc3)nc2n1-c1cccc(C(C)(C)O)n1 (stereo not drawn) [Compound 13, 4-((3-(4-(4-((2-allyl-1-(6-(2-hydroxypropan-2-yl)pyridin-2-yl)-3-oxo-2,3-dihydro-1H-pyrazolo[3,4-d]pyrimidin-6-yl)amino)phenyl)piperazin-1-yl)propyl)amino)-2-(2,6-dioxopiperidin-3-yl)isoindoline-1,3-dione] | ≤ 3 | over 50% | no effect on Wee1 abundance | degraded Wee1 | 100 | 10 | at least 48 hrs | strong engagement of both Wee1 and PLK1 | 1 | up to 10 fold | 100 | synergized with Olaparib
no effect on Wee1 protein levels | C=CCn1c(=O)c2cnc(Nc3ccc(N4CCN(CCCNc5cccc6c5C(=O)N(C5CCC(=O)N(C)C5=O)C6=O)CC4)cc3)nc2n1-c1cccc(C(C)(C)O)n1 (stereo not drawn) [Compound 20, 4-((3-(4-(4-((2-allyl-1-(6-(2-hydroxypropan-2-yl)pyridin-2-yl)-3-oxo-2,3-dihydro-1H-pyrazolo[3,4-d]pyrimidin-6-yl)amino)phenyl)piperazin-1-yl)propyl)amino)-2-(1-methyl-2,6-dioxopiperidin-3-yl)isoindoline-1,3-dione] | – | – | – | did not degrade Wee1 | – | – | – | – | – | – | – | less synergistic activity
